Results from article PMC6637216 (BioImpacts : BI, 2019).
Several values for one entry are separate records, joined by “and”; a condition that tells them apart may be missing. Equal entries are not always repeated.

Tests used:
[1] = target: T1, AChE from Electrophorus electricus (electric eel) (Electrophorus electricus, UniProt O42275); experiment: Ellman AChE inhibition and kinetics in HSA matrix; type: biochemical; conditions: for ΔrIC50, relative decrease in inhibition potency in HSA versus buffer: (IC50(HSA)-IC50(Buffer))/IC50(Buffer)x100; for Vmax / α / α': HSA medium (in parentheses); for nH (Hill coefficient): HSA medium, values in parentheses
[2] = target: T1, AChE from Electrophorus electricus (electric eel); experiment: Ellman colorimetric AChE inhibition and kinetics in aqueous phosphate buffer; type: biochemical; conditions: for nH (Hill coefficient) / Vmax / α / α': aqueous buffer
AChE = AChE (Electrophorus electricus, UniProt O42275); experiment: ThT displacement from AChE; type: binding; conditions: quenching of ThT-AChE fluorescence, 0.1 M phosphate buffer pH 8.0
Sequence of AChE (O42275 24-633): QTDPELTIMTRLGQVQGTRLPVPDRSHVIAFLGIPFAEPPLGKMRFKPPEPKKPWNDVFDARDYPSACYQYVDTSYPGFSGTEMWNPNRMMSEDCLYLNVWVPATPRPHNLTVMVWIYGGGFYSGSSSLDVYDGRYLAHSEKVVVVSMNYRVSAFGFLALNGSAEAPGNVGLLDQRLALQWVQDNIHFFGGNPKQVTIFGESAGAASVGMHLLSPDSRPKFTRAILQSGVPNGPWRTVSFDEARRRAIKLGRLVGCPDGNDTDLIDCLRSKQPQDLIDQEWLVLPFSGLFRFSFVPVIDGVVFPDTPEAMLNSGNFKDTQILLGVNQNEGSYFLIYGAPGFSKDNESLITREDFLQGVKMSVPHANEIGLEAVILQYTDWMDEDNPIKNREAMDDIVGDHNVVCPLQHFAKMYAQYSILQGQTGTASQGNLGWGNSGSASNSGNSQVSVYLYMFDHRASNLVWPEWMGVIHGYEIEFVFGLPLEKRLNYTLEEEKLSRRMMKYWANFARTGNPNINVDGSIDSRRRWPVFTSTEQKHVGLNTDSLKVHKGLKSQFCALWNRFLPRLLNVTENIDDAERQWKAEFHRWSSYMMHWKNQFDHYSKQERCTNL

T1 sequence (O42275 24-633): as above

Structure (SMILES)	IC50 [1]	ΔrIC50, relative decrease in inhibition potency in HSA versus buffer [1]	Vmax ([1]; inhibitor 5 nM)	α ([1]; inhibitor 5 nM)	α' ([1]; inhibitor 5 nM)	Vmax ([1]; inhibitor 10 nM)	α ([1]; inhibitor 10 nM)	α' ([1]; inhibitor 10 nM)	nH (Hill coefficient) [1]	IC50 [2]	nH (Hill coefficient) [2]	Vmax ([2]; inhibitor 5 nM)	α ([2]; inhibitor 5 nM)	α' ([2]; inhibitor 5 nM)	Vmax ([2]; inhibitor 10 nM)	α ([2]; inhibitor 10 nM)	α' ([2]; inhibitor 10 nM)	KSV (Stern-Volmer constant) (AChE)
Cc1cc(=O)c2ccc(N)cc2o1 [AMC, 7-amino-2-methylchromone]	115 nM	~ 5% and 5%	711 ± 47 nM/s	1.2 (1.2)	1.2 (1.2)	557 ± 39 nM/s	1.5	1.4 (1.4)	1.52±0.1	103 ± 11.9 nM	1.45 ± 0.1	670 ± 26 nM/s	1.2 (1.2)	1.2 (1.2)	560 ± 39 nM/s	1.4	1.4 (1.4)	230000 M⁻¹
N#Cc1coc2ccccc2c1=O [CyC, 3-cyanochromone]	113 nM	~ 32% and 32%	730 ± 17 nM/s	1.1	1.1	671 ± 30 nM/s	1.2	1.2	1.89±0.17	85.1 ± 6.7 nM	1.51 ± 0.1	631 ± 21 nM/s	1.3	1.3	538 ± 31 nM/s	1.5	1.5	370000 M⁻¹
